Measurements reported in ChEMBL document CHEMBL1141771, “p-Aminoacetophenonic acids produced by a mangrove endophyte: Streptomyces griseus subsp” (J Nat Prod, 2005).
Activity calls are given as the source filed them.

Assays:
[1] = Activity of hydroxysteroid dehydrogenase
[2] = Activity of peroxidase
L929 = assay: Cytotoxicity against mouse L929 cells; type: functional, cell-based
K562 = assay: Cytotoxicity against human K562 cells; type: functional, cell-based
HeLa = assay: Cytotoxicity against human HeLa cells; type: functional, cell-based

Measured: Activity

C/C(=C\C(C)CC(C)C(O)CC(=O)c1ccc(N)cc1)C(=O)O (stereo not given)
inactive: [1] | [2] | L929 | K562 | HeLa

CC(O)C(/C=C/C=C/C(=O)O)C(C)CC(C)C(O)CC(=O)c1ccc(N)cc1 (stereo not given)
inactive: [1] | [2] | L929 | K562 | HeLa

CC(/C=C/C(=O)c1ccc(N)cc1)CC(C)C(=O)O (stereo not given)
inactive: [1] | [2] | L929 | K562 | HeLa
